Consider five compounds from US5266571A, “Treatment of hemorrhoids with 5-HT2 antagonists” (priority 1992, dated 1993).

Counter-ions that a name gives are not always drawn. Like-named read-outs stand apart in the source and are kept apart here.

One experiment addresses 5-HT2 (Homo sapiens, UniProt P28223). As to the kind of experiment: Receptor Blocking Profile: inhibition of labeled 5-HT binding, 5-HT2. The procedure: (§1) The receptor blocking profile is determined as follows: Labeled 5-HT is mixed with a purified preparation containing the receptor. The amount of labeled material that attaches itself to the receptor and cannot be washed off is calculated. In a series of other similar tubes, the same quantity of labeled 5-HT is mixed with increasing concentrations of the antagonist which will antagonize the binding of 5-HT to the receptor. Decreasing quantities of the labeled material will bind to the receptor. The concentration of the antagonist that inhibits the binding by 50% is then calculated.

The target of the next experiment is 5-HT1. As to the kind of experiment: Receptor Blocking Profile, 5-HT1. Format: binding. As to conditions: read-out: Receptor Blocking Profile IC-50, 5-HT1. As to the method:
(§2) The IC- 50 is the concentration that inhibits agonist binding to the
(§3) receptor by 50%. The better the blocker a compound is, the smaller is the
(§4) concentration thereof needed to block the receptor, i.e., the smaller the
(§5) IC-50, the better receptor blocker or antagonist the compound is.
as §1

Another experiment concerns the target Dopamine-2 (Homo sapiens, UniProt P14416). As to the kind of experiment: Receptor Blocking Profile, Dopamine-2. Format: binding.
In another experiment the target is Alpha-receptor. The experiment is described as follows: Receptor Blocking Profile, Alpha-receptor. Format: binding. The following applies: read-out: Receptor Blocking Profile IC-50, Alpha-receptor. The procedure:
as §2, §3, §4, §5, §1

A further experiment deals with human colon veins. The experiment is described as follows: Activity against 5-HT on the human colon in vitro (contraction of human colonic vein rings). As to conditions: for blocking contractile effects of 5-HT on human colon rings, correlation with receptor blocking potencies: human colon rings in vitro, compared with the receptors tested; for IC50: read-out: IC-50, activity against 5-HT on the human colon in vitro.

Experiment [1] relates to 5-HT2 receptor. The following applies: background statement; cited from earlier work.
Experiment [2] relates to 5-HT2 receptor. As to conditions: background statement; cited from earlier work. This is another data set of the same source.
The mark [3] stands for this setting: read-out: Receptor Blocking Profile IC-50, Dopamine-2.
The mark [4] stands for this setting: human colon vein rings, antagonist pre-added, 5-HT-induced contraction.

Sequence of Dopamine-2 (P14416 whole entry): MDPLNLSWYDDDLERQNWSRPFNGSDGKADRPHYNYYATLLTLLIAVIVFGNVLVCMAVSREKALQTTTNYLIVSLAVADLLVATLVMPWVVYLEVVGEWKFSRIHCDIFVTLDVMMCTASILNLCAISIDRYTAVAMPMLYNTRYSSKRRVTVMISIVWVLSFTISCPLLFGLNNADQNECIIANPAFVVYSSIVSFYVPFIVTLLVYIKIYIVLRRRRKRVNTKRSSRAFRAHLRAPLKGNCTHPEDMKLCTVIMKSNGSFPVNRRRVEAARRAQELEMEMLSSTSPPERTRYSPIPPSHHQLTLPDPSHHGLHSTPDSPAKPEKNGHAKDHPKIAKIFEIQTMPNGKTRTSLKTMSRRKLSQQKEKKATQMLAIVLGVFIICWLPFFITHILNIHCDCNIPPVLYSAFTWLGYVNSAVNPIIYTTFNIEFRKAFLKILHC
Sequence of 5-HT2 (P28223 whole entry, species assumed): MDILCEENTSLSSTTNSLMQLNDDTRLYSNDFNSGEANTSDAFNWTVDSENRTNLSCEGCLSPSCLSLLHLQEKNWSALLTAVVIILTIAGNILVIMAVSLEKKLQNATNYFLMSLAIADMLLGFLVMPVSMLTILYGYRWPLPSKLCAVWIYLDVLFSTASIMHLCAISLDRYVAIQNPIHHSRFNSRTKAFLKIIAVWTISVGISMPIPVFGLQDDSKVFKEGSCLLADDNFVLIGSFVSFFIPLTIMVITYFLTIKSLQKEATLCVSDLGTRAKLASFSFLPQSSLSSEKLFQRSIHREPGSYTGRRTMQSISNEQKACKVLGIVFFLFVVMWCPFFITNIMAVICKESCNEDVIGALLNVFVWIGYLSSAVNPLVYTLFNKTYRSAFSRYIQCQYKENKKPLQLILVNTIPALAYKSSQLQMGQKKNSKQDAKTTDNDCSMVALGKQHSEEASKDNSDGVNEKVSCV
Description for human colon veins: Human colonic vein rings were isolated from discarded human colon tissue following surgery (colostomy). The rings were prepared immediately after surgery and were suspended in buffered physiological saline. The contractions produced by the rings in response to the addition of 5-HT in vitro were measured. The effects of three selected 5-HT2 antagonist compounds on antagonizing 5-HT contractile effects were also determined.
This activity is determined as follows: Rings of human colon veins are prepared and hung in a tissue bath. The contractions of the rings are monitored. Adding 5-HT causes the rings to contract. Pre-addition of increasing concentrations of the antagonist result in lesser contractions. The amount of antagonist causing a 50% inhibition of the contractions is then calculated.

As to `CN1CCCCC1CCc1ccccc1NC(=O)C=Cc1ccccc1.Cl` (centres unmarked) [Compound I, 2'[2-(1-methyl-2-piperidyl)ethyl] cinnamanilide hydrochloride], the IC50 was 0.0034 µM at 5-HT2; 22 µM at 5-HT1; more than 1 µM on Dopamine-2 (setting [3]); more than 1 µM at Alpha-receptor; 0.002 µM in the experiment with human colon veins (setting [4]). Also, the “blocking contractile effects of 5-HT on human colon rings, correlation with receptor blocking potencies” value (“blocking contractile effects of 5-HT” for short) in the experiment on human colon veins was “correlated best with their 5-HT2 blocking potencies”.
In the case of `CCc1nn(CCCN2CCN(c3cccc(Cl)c3)CC2)c(=O)n1CCOc1ccccc1` [Compound II, 2-[3-[4-(3-chlorophenyl)-1-piperazinyl]propyl-5-ethyl-2,4-dihydro-4-(2-phenoxyethyl)-3H-1,2,4-triazol-3-one hydrochloride], the IC50 was more than 1 µM at 5-HT1, more than 1 µM against Dopamine-2, 0.16 µM on Alpha-receptor and 0.01 µM in the experiment on human colon veins (setting [4]). Also, the “blocking contractile effects of 5-HT” value in the experiment with human colon veins was “correlated best with their 5-HT2 blocking potencies”.
Take `O=C1CC2(CCCC2)CC(=O)N1CCCCN1CCN(c2nsc3ccccc23)CC1` [Compound III, 8-[4-[4-(1,2-benzisotriazol-3-yl)-1-piperazinyl]butyl]-8-azaspiro[4,5]decane-7,9-dione hydrochloride]: the IC50 at 5-HT2 (read-out: Receptor Blocking Profile IC-50, 5-HT2, displacement of labeled 5-HT) was found to be 0.0017 µM; on 5-HT1, 0.0125 µM; on Dopamine-2 (setting [3]), 0.0084 µM; at Alpha-receptor, 0.047 µM; with human colon veins (Homo sapiens), 0.001 µM. The “blocking contractile effects of 5-HT” value in the experiment on human colon veins is given as “correlated best with their 5-HT2 blocking potencies”.
As for `O=C(c1ccc(F)cc1)C1CCN(CCn2c(=O)[nH]c3ccccc3c2=O)CC1` [ketanserin], the “antagonism of binding of 5-HT to 5-HT2 receptor” value with 5-HT2 receptor [1] is listed as “antagonized”. In addition, the “inhibition of modulation of phosphatidylinositol turnover by 5-HT2 receptor” value in the experiment with 5-HT2 receptor [2] is reported as “inhibited”.
Turning to `CN1C[C@@H](NS(=O)(=O)N(C)C)C[C@@H]2c3cccc4c3c(cn4C)C[C@H]21` [mesulergine], the “antagonism of binding of 5-HT to 5-HT2 receptor” value in the experiment with 5-HT2 receptor [1] was “antagonized”.
